Where two headings read alike, the source gives them in different places. Marks after values point to notes of the source that are not given here.
Columns and labels:
[1] = preparation examples, HPLC method ([a], [b] or [c]) not stated
Phaedon cochleariae = conditions: spray on Chinese cabbage leaf-disks, 500 g/ha, after 7 days
Experimental: • Solvent: 78.0 parts by weight of acetone • 1.5 parts by weight of dimethylformamide • Emulsifier: 0.5 parts by weight of alkylaryl polyglycolether
Chinese cabbage (Brassica pekinesis) leaf-disks are sprayed with a preparation of the active ingredient of the desired concentration. Once dry, the leaf disks are infested with mustard beetle larvae (Phaedon cochleariae). After 7 days mortality in % is determined. 100% means that all beetle larvae have been killed and 0% means that none of the beetle larvae have been killed.

Row | Compound | Log P (pH 2.7) | also measured
1 | CC(C)NC(=O)/C(C#N)=C(\NC(C)c1nccs1)c1sccc1Br (stereo not shown) | – | chromatographic logP [1]: 3.11
2 | CCOC(=O)C(C#N)=C(NC(C)c1nccs1)c1ncc(C(F)(F)F)cc1Cl (racemic) [Compound 40] | 3.37^[a] | activity (mortality) (Phaedon cochleariae): 83%
3 | CCC1CC1N/C(=C/C#N)c1cccnc1Cl (stereo not shown) [3-(2-chloropyridin-3-yl)-3-[(2-ethylcyclopropyl)amino]acrylonitrile] | – | chromatographic logP [1]: 2.53
4 | N#CC=C(Cl)c1cccnc1Cl [3-chloro-3-(2-chloropyridin-3-yl)acrylonitrile] | – | chromatographic logP [1]: 1.94; LogP [1]: 2.03
5 | CC(N/C(=C(/C#N)C(=O)NC1CC1)c1cn(C)nc1C(F)F)c1nccs1 (stereo not shown) [(2Z)-2-cyano-N-cyclopropyl-3-[3-(difluoromethyl)-1-methyl-1H-pyrazol-4-yl]-3-{[1-(1,3-thiazol-2-yl)ethyl]amino}acrylamide] | – | chromatographic logP [1]: 2.04
6 | CCNC(=S)/C(C#N)=C(\NC1CC1CC)c1cccnc1Cl (stereo not shown) [(2Z)-3-(2-chloropyridin-3-yl)-2-cyano-N-ethyl-3-[(2-ethylcyclopropyl)amino]-prop-2-enethioamide] | – | chromatographic logP [1]: 3.87
7 | CC(N/C(=C(/C#N)C(=O)O)c1sccc1Br)c1nccs1 (stereo not shown) [(2Z)-3-(3-bromo-2-thienyl)-2-cyano-3-{[1-(1,3-thiazol-2-yl)ethyl]amino}acrylic acid] | – | chromatographic logP [1]: 1.23
8 | CC(C)NC(=O)C(C#N)=C(NC(C)C(C)C)c1cccnc1Cl (stereo not shown) [Compound 957] | – | activity (mortality) (Phaedon cochleariae): 100%; Log P (pH 2.3): 3.37; Log P (pH 7.5): 3.39
9 | C#CC(C)(C)NC(=C(C#N)C(=O)OC)c1cccnc1Cl [Compound 1028] | 2.23^[a] | activity (mortality) (Phaedon cochleariae): 83%
10 | CCOC(=O)C(C#N)=C(NC(C)C(C)C)c1cccnc1-c1ccc(Cl)c(Cl)c1 (stereo not shown) [Compound 1475] | – | activity (mortality) (Phaedon cochleariae): 100%; Log P (pH 2.3): 4.56^[c]; 4.56^[b]; Log P (pH 7.5): 4.56^[c]; 4.56^[b]
11 | CCOC(=O)C(C#N)=C(NC(C)C(C)C)c1cccnc1-c1cncnc1 (stereo not shown) [Compound 1591] | – | activity (mortality) (Phaedon cochleariae): 100%; Log P (pH 7.5): 2.42
12 | CC(NC(=C(C#N)C(=O)N1CCCO1)c1cccnc1Cl)c1nccs1 (stereo not shown) [Compound 1599] | 1.9^[a] | –
13 | CCOC(=O)C(C#N)=C(Nc1ccc(F)cc1F)c1cccnc1Cl [Compound 1600] | – | Log P (pH 2.3): 2.95; Log P (pH 7.5): 2.9
14 | C=CCOC(=O)C(C#N)=C(Nc1ccccc1SC)c1cccnc1Cl [Compound 1602] | – | Log P (pH 2.3): 3.32^[c]; 3.32^[b]; Log P (pH 7.5): 3.32^[c]; 3.32^[b]
15 | CCOC(=O)C(C#N)=C(NC(C)C(C)OC)c1cc(Cl)sc1Cl (stereo not shown) [Compound 1603] | 4.02^[a] | –
16 | CCOC(=O)C(C#N)=C(Nc1cccc(F)c1F)c1cccnc1Cl [Compound 1604] | – | Log P (pH 2.3): 3; Log P (pH 7.5): 2.88
17 | CCOC(=O)C(C#N)=C(NC1CCCc2cccnc21)c1cccnc1Cl (stereo not shown) [Compound 1605] | 3^[a] | –
18 | CCOC(=O)C(C#N)=C(NC(C)C1CCCC1)c1cccnc1Cl (stereo not shown) [Compound 1606] | 3.9^[a] | –
19 | CCOC(=O)C(C#N)=C(NC1(C)CCC1)c1cccnc1Cl [Compound 1607] | 3.11^[a] | –
20 | CCOC(=O)C(C#N)=C(NC(C)c1ccn[nH]1)c1cccnc1Cl (stereo not shown) [Compound 1608] | 2.1^[a] | –
21 | CCOC(=O)C(C#N)=C(Nc1cc(F)ccc1F)c1cccnc1Cl [Compound 1609] | – | Log P (pH 2.3): 2.95; Log P (pH 7.5): 2.83
22 | CCOC(=O)C(C#N)=C(Nc1cccc(F)c1C)c1cccnc1Cl [Compound 1610] | – | Log P (pH 2.3): 3.26; Log P (pH 7.5): 3.24
23 | CCOC(=O)C(C#N)=C(Nc1cccc(F)c1OC)c1cccnc1Cl [Compound 1611] | – | Log P (pH 2.3): 3.13^[c]; 3.13^[b]; Log P (pH 7.5): 3.13^[c]; 3.13^[b]

Row | Compound | Log P (pH 2.7) | also measured
24 | CC(C)C(C)NC(=C(C#N)C(=O)N1CCCO1)c1cccnc1Cl (stereo not shown) [Compound 1612] | 2.55^[a] | –
25 | COC1(NC(=O)C(C#N)=C(NC(C)C(C)C)c2cccnc2Cl)CC1 (stereo not shown) [Compound 1613] | 2.75^[a] | –
26 | CC(C)C(C)NC(=C(C#N)C(=O)NN(C)C)c1cccnc1Cl (stereo not shown) [Compound 1614] | 2.08^[a] | –
27 | CC(C)C(C)NC(=C(C#N)C(=O)N1CCSC1C)c1cccnc1Cl (stereo not shown) [Compound 1615] | 3.6^[a] | –
28 | CCNC(=O)C(C#N)=C(Nc1ccccc1SC)c1cccnc1Cl [Compound 1616] | – | Log P (pH 2.3): 2.85; Log P (pH 7.5): 2.82
29 | CCOC(=O)C(C#N)=C(NC(C)C(C)C)c1ccc(Cl)nc1 (stereo not shown) [Compound 1617] | – | Log P (pH 2.3): 3.39; Log P (pH 7.5): 3.41
30 | CC(C)C(C)NC(=C(C#N)C(=O)N1CCSC1)c1cccnc1Cl (stereo not shown) [Compound 1618] | 3.1^[a] | –
31 | CON=C(C)NC(=O)C(C#N)=C(NC(C)C(C)C)c1cccnc1Cl (stereo not shown) [Compound 1619] | 1.88^[a] | –
32 | CONC(=O)C(C#N)=C(Nc1ccccc1SC)c1cccnc1Cl [Compound 1620] | – | Log P (pH 2.3): 2.19; Log P (pH 7.5): 1.96
33 | CCOC(=O)C(C#N)=C(NC1CCC1)c1ccnc(C(F)(F)F)c1Cl [Compound 1621] | 3.78^[a] | –
34 | CCOC(=O)C(C#N)=C(NC(C)C1CC1)c1ccnc(C(F)(F)F)c1Cl (stereo not shown) [Compound 1622] | 3.85^[a] | –
35 | CCOC(=O)C(C#N)=C(NC(C)COC)c1ccnc(C(F)(F)F)c1Cl (stereo not shown) [Compound 1623] | 3.46^[a] | –
36 | CCOC(=O)C(C#N)=C(NC(C)C1CCCO1)c1ccnc(C(F)(F)F)c1Cl (stereo not shown) [Compound 1624] | 3.62^[a] | –
37 | CCOC(=O)C(C#N)=C(NC(C)c1ccccn1)c1ccnc(C(F)(F)F)c1Cl (stereo not shown) [Compound 1625] | 3.33^[a] | –
38 | CCOC(=O)C(C#N)=C(NC(C)c1nccs1)c1ccnc(C(F)(F)F)c1Cl (stereo not shown) [Compound 1626] | 3.46^[a] | –
39 | CCOC(=O)C(C#N)=C(NC(C)C(C)C)c1ccnc(C(F)(F)F)c1Cl (stereo not shown) [Compound 1627] | 4.18^[a] | –
40 | CNN(C)C(=O)C(C#N)=C(NC(C)C(C)C)c1cccnc1Cl (stereo not shown) [Compound 1628] | 1.3^[a] | –
41 | CCOC(=O)C(C#N)=C(NC(C)C1=NCCS1)c1cccnc1Cl (stereo not shown) [Compound 1629] | 2.5^[a] | –
42 | CCOC(=O)C(C#N)=C(NC1CCCCC1)c1cc(Cl)sc1Cl [Compound 1630] | 4.92^[a] | –
43 | CCOC(=O)C(C#N)=C(NC(C)C(=O)NC1CCCCC1)c1cc(Cl)sc1Cl (stereo not shown) [Compound 1631] | 3.83^[a] | –
44 | CCOC(=O)C(C#N)=C(NC(C)C(=O)NC)c1cc(Cl)sc1Cl (stereo not shown) [Compound 1632] | 2.46^[a] | –
45 | CCOC(=O)C(C#N)=C(NC(C)C(C)=NOC)c1cccnc1Cl (stereo not shown) [Compound 1633] | 2.8^[a] | –
46 | CCOC(=O)C(C#N)=C(NC1CC1C1CC1)c1cccnc1Cl (stereo not shown) [Compound 1634] | 3.13^[a] | –

Row | Compound | Log P (pH 2.7) | also measured
47 | CCOC(=O)C(C#N)=C(NC1CC1C(C)C)c1cccnc1Cl (stereo not shown) [Compound 1635] | 3.53^[a] | –
48 | CCON=C(C)C(C)NC(=C(C#N)C(=O)OCC)c1cccnc1Cl (stereo not shown) [Compound 1636] | 3.29^[a] | –
49 | CCOC(=O)C(C#N)=C(NC(C)c1nccn1C)c1cccnc1Cl (stereo not shown) [Compound 1637] | 0.93^[a] | –
50 | CCOC(=O)C(C#N)=C(NC(C)c1cc(C(F)(F)F)c(Cl)cn1)c1cccnc1Cl (stereo not shown) [Compound 1638] | 3.9^[a] | –
51 | CCOC(=O)C(C#N)=C(NC(C)c1cc(Cl)cc(Cl)n1)c1cccnc1Cl (stereo not shown) [Compound 1639] | 3.7^[a] | –
52 | CCOC(=O)C(C#N)=C(NC(C)C1CCC1)c1ccnn1C(F)F (stereo not shown) [Compound 1640] | 3.56^[a] | –
53 | CCOC(=O)C(C#N)=C(NC1(CC)CC1)c1cccnc1Cl [Compound 1641] | 3.13^[a] | –
54 | CCOC(=O)C(C#N)=C(NC1(CC2CC2)CC1)c1cccnc1Cl [Compound 1642] | 3.53^[a] | –
55 | CCOC(=O)C(C#N)=C(NC(C)Cc1ccccc1)c1cccnc1Cl (stereo not shown) [Compound 1643] | 3.5^[a] | –
56 | CCOC(=O)C(C#N)=C(NC(C)c1nccs1)c1ccnn1C(F)F (stereo not shown) [Compound 1644] | 2.51^[a] | –
57 | CCOC(=O)C(C#N)=C(NC(C)C(C)C)c1ccnn1C(F)F (stereo not shown) [Compound 1645] | 3.27^[a] | –
58 | CCOC(=O)C(C#N)=C(NC(C)c1ccccn1)c1ccnn1C(F)F (stereo not shown) [Compound 1646] | 2.55^[a] | –
59 | CCOC(=O)C(C#N)=C(NC(C)C1CC1)c1ccnn1C(F)F (stereo not shown) [Compound 1647] | 3.01^[a] | –
60 | CCOC(=O)C(C#N)=C(NC(C)C1CCC1)c1c(CC)nn(C)c1Cl (stereo not shown) [Compound 1648] | 3.94^[a] | –
61 | CCOC(=O)C(C#N)=C(NC(C)c1c(Cl)cccc1Cl)c1cccnc1Cl (stereo not shown) [Compound 1649] | 3.8^[a] | –
62 | CCOC(=O)C(C#N)=C(Cl)c1scc(C)c1Cl [ethyl 3-chloro-3-(3-chloro-4-methyl-2-thienyl)-2-cyanoacrylate] | – | chromatographic logP [1]: 3.65; LogP [1]: 3.70
63 | CCOC(=O)/C(C#N)=C(\NCC(c1ccccc1)C(C)C)c1cccnc1Cl (stereo not shown) [ethyl (2Z)-3-(2-chloropyridin-3-yl)-2-cyano-3-[(3-methyl-2-phenylbutyl)amino]acrylate] | – | chromatographic logP [1]: 4.21
64 | CCOC(=O)/C(C#N)=C(\NCCc1ncc(C(F)(F)F)cc1Cl)c1cccnc1Cl [ethyl (2Z)-3-(2-chloropyridin-3-yl)-3-({2-[3-chloro-5-(trifluoromethyl)pyridin-2-yl]ethyl}amino)-2-cyanoacrylate] | – | chromatographic logP [1]: 3.57
65 | CCOC(=O)/C(C#N)=C(\NC(C)c1ccc(Cl)nc1)c1cccnc1Cl (stereo not shown) [ethyl (2Z)-3-(2-chloropyridin-3-yl)-3-{[1-(6-chloropyridin-3-yl)ethyl]amino}-2-cyanoacrylate] | – | chromatographic logP [1]: 2.8
66 | CCOC(=O)/C(C#N)=C(\N[C@H](C)C(=O)NC)c1scc(C)c1Cl [ethyl (2Z)-3-(3-chloro-4-methyl-2-thienyl)-2-cyano-3-{[(2R)-1-(methylamino)-1-oxopropan-2-yl]amino}acrylate] | – | chromatographic logP [1]: 3.61
67 | CCN/C(=C(/C#N)C(=O)OCC)c1cccnc1-c1ccc(Cl)cc1 [ethyl (2Z)-3-[2-(4-chlorophenyl)pyridin-3-yl]-2-cyano-3-(ethylamino)acrylate] | – | chromatographic logP [1]: 2.96

From patent US8476197B2, “Aminopropenoates as fungicides” (priority 2009, dated 2013)
